How the values were obtained:
Assay type in all cases: in vivo
transplanted rice plant = experiment: Test Example 1: effect on crop, application before weed generation in submerged conditions (symbol a); details: application herbicide amount 320 g/ha
Method in brief: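 Alluvial soil pots flooded to 4 cm water, sown with Echinochloa oryzacola, Scirpus juncoides and Monochoria vaginalis, then transplanted with 2.5 leaf stage rice seedlings; pre-emergence application. Greenhouse 25° C. to 30° C.; scored 0–5 by herbicidal ratio 3 weeks after application.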

Monochoria vaginalis = experiment: Test Example 2: herbicidal activity, application during weed generation in submerged conditions (symbol C); details: Table 23; application herbicide amount 320 g/ha; grade 0-5 by criteria of Test Example 1
Method in brief: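 Treatment timing was the one- to two-leaf stage, with diluted emulsifiable compound dropped onto the paddy water (depth 4 cm) over alluvial soil. All three species grew from a mixed sowing in a 25° C. to 30° C. greenhouse. Injury was judged by eye 3 weeks on.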

[1] = test system: Echinochloa crus-galli var. crus-galli; experiment: Test Example 4: herbicidal effect by soil treatment (symbol H); details: for Herbicidal effect grade, H: Echinochloa crus-galli var. crus-galli: application herbicide amount 320 g/ha
Method in brief: (§1)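 Seeds were sown in sterilized diluvial soil, covered with about 1.5 cm of soil, and the soil surface was sprayed with a water-diluted emulsion of the compound at a predetermined rate. Plants grew in a greenhouse at 25° C. to 30° C.; effects were scored visually 3 weeks after application.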

Amaranthus retroflexus = experiment: Test Example 4: herbicidal effect by soil treatment (symbol N); details: for Herbicidal effect grade, N: Amaranthus retroflexus: application herbicide amount 320 g/ha
Method in brief: as §1

Galium spurium = experiment: Test Example 4: herbicidal effect by soil treatment (symbol Q); details: for Herbicidal effect grade, Q: Galium spurium: application herbicide amount 320 g/ha
Excerpt: Herbicidal Effect Test by Soil Treatment
Sterilized diluvial soil was placed in a plastic box having a length of 21 cm, a width of 13 cm, and a depth of 7 cm. Each of the seeds of Digitaria ciliaris, Setaria viridis, Echinochloa crus-galli var. crus-galli, Avena fatua, Alopecurus myosuroides, Lolium multiflorum Lam., Apera spica-venti, Abutilon theophrasti, Amaranthus retroflexus, Chenopodium album, Stellaria media, Galium spurium, Veronica persica, corn, soybean, rice, wheat, beet, and rapeseed was sowed in a spot-like manner and was covered with the soil of a thickness of about 1.5 cm. Subsequently, the emulsion agent of the compound present invention prepared in accordance with Formulation Example 2 was diluted with water so as to be a predetermined herbicide amount and the diluted emulsion agent was uniformly applied to the surface of the soil with a small-size spray. The plastic box was placed in a greenhouse of 25° C. to 30° C. to grow plant. 3 weeks later from the herbicide application, the effect to each plant was investigated in accordance with the criteria of Test Example 1.

rice = experiment: Test Example 4: effect on crop by soil treatment (symbol b); details: for Effect on crop grade, b: directly sowed rice plant: application herbicide amount 320 g/ha
Method in brief: (§2)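 Crop seeds, among them rice, wheat, beet and rapeseed, were sown in sterilized diluvial soil and covered with about 1.5 cm of soil. Boxes were kept in a greenhouse at 25° C. to 30° C. for plant growth.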

beet = experiment: Test Example 4: effect on crop by soil treatment (symbol f); details: for Effect on crop grade, f: beet: application herbicide amount 320 g/ha
Method in brief: as §2

Digitaria ciliaris = experiment: Test Example 5: herbicidal effect by foliage application, plastic box (symbol F); details: 320 g/ha, 3 weeks after application
Method in brief: (§3)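 Seeds were sown in sterilized diluvial soil, covered with about 1.5 cm of soil and grown 14 days in a greenhouse at 25° C. to 30° C. An emulsifiable formulation diluted in water to a set rate was sprayed over foliage, and injury was scored 3 weeks later.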

Setaria viridis = experiment: Test Example 5: herbicidal effect by foliage application, plastic box (symbol G); details: 320 g/ha, 3 weeks after application
Method in brief: as §3

Avena fatua = experiment: Test Example 5: herbicidal effect by foliage application, plastic box (symbol I); details: 320 g/ha, 3 weeks after application
Method in brief: as §3

Abutilon theophrasti = experiment: Test Example 5: herbicidal effect by foliage application, plastic box (symbol M); details: 320 g/ha, 3 weeks after application
Method in brief: as §3

Stellaria media [2] = experiment: Test Example 5: herbicidal effect by foliage application, plastic box (symbol P); details: 320 g/ha, 3 weeks after application
Method in brief: as §3

rice plant = experiment: Test Example 5: effect on crop by foliage application, plastic box (symbol b); details: 320 g/ha, 3 weeks after application
Method in brief: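 Plants were raised from seed in a greenhouse (25° C. to 30° C.) after sowing in a plastic box of sterilized diluvial soil.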

Stellaria media [3] = experiment: Test Example 4: herbicidal effect by soil treatment (symbol P); details: for Herbicidal effect grade, P: Stellaria media: application herbicide amount 320 g/ha
Method in brief: as §1

SMILES | a (transplanted rice plant) effect on crop grade (transplanted rice plant) | Herbicidal effect grade, C: Monochoria vaginalis (Monochoria vaginalis) | Herbicidal effect grade, H: Echinochloa crus-galli var. crus-galli [1] | Herbicidal effect grade, N: Amaranthus retroflexus (Amaranthus retroflexus) | Herbicidal effect grade, Q: Galium spurium (Galium spurium) | Effect on crop grade, b: directly sowed rice plant (rice) | Effect on crop grade, f: beet (beet) | F: Digitaria ciliaris, herbicidal effect grade (Digitaria ciliaris) | G: Setaria viridis, herbicidal effect grade (Setaria viridis) | I: Avena fatua, herbicidal effect grade (Avena fatua) | M: Abutilon theophrasti, herbicidal effect grade (Abutilon theophrasti) | P: Stellaria media, herbicidal effect grade (Stellaria media [2]) | b: directly sowed rice plant, effect on crop grade (rice plant) | Herbicidal effect grade, P: Stellaria media (Stellaria media [3]) | further results
Cc1cc(Br)cc(C)c1C1=C(O)CC(CC(=NOCC(F)(F)F)C2CC2)C1=O (centres unmarked) [9-009] | 5 (Herbicidal ratio of 90% or more (almost completely withered)) | 0 (Herbicidal ratio of 5% or lower (almost no effect)) | 0 (Herbicidal ratio of 5% or lower (almost no effect)) | 0 (Herbicidal ratio of 5% or lower (almost no effect)) | 0 (Herbicidal ratio of 5% or lower (almost no effect)) | 0 (Herbicidal ratio of 5% or lower (almost no effect)) | 0 (Herbicidal ratio of 5% or lower (almost no effect)) | 4 (Herbicidal ratio of 70% or higher and lower than 90%) | 5 (Herbicidal ratio of 90% or more (almost completely withered)) | 5 (Herbicidal ratio of 90% or more (almost completely withered)) | 0 (Herbicidal ratio of 5% or lower (almost no effect)) | 0 (Herbicidal ratio of 5% or lower (almost no effect)) | 5 (Herbicidal ratio of 90% or more (almost completely withered)) |  | 
CON=C(C)CC1CC(OC(=O)N(C)CCCCCl)=C(c2c(C)cc(C)cc2C)C1=O (centres unmarked) [1-126] |  |  |  |  |  |  |  |  |  |  |  |  |  |  | Effect grade on crop, a: transplanted rice plant (transplanted rice plant): 3 (Herbicidal ratio of 40% or higher and lower than 70%); H: Echinochloa crus-galli var. crus-galli, herbicidal effect grade ([1]; 320 g/ha): 0 (Herbicidal ratio of 5% or lower (almost no effect)); N: Amaranthus retroflexus, herbicidal effect grade (Amaranthus retroflexus; 320 g/ha): 0 (Herbicidal ratio of 5% or lower (almost no effect)); P: Stellaria media, herbicidal effect grade (Stellaria media [3]; 320 g/ha): 0 (Herbicidal ratio of 5% or lower (almost no effect)); Q: Galium spurium, herbicidal effect grade (Galium spurium; 320 g/ha): 0 (Herbicidal ratio of 5% or lower (almost no effect)); b: directly sowed rice plant, effect grade on crop (rice; 320 g/ha): 0 (Herbicidal ratio of 5% or lower (almost no effect)); f: beet, effect grade on crop (beet; 320 g/ha): 0 (Herbicidal ratio of 5% or lower (almost no effect)); F: Digitaria ciliaris, herbicidal effect (criteria 0-5) (Digitaria ciliaris): 3 (Herbicidal ratio of 40% or higher and lower than 70%); G: Setaria viridis, herbicidal effect (criteria 0-5) (Setaria viridis): 4 (Herbicidal ratio of 70% or higher and lower than 90%); I: Avena fatua, herbicidal effect (criteria 0-5) (Avena fatua): 3 (Herbicidal ratio of 40% or higher and lower than 70%); M: Abutilon theophrasti, herbicidal effect (criteria 0-5) (Abutilon theophrasti): 0 (Herbicidal ratio of 5% or lower (almost no effect)); P: Stellaria media, herbicidal effect (criteria 0-5) (Stellaria media [2]): 0 (Herbicidal ratio of 5% or lower (almost no effect)); b: directly sowed rice plant, effect on crop (criteria 0-5) (rice plant): 4 (Herbicidal ratio of 70% or higher and lower than 90%)
CC#Cc1cc(C)c(C2=C(O)CC(CC(=NOCCOC)C3CC3)C2=O)c(C)c1 (centres unmarked) [9-021] | 5 (Herbicidal ratio of 90% or more (almost completely withered)) |  | 5 (Herbicidal ratio of 90% or more (almost completely withered)) | 0 (Herbicidal ratio of 5% or lower (almost no effect)) | 0 (Herbicidal ratio of 5% or lower (almost no effect)) | 5 (Herbicidal ratio of 90% or more (almost completely withered)) | 0 (Herbicidal ratio of 5% or lower (almost no effect)) | 5 (Herbicidal ratio of 90% or more (almost completely withered)) | 5 (Herbicidal ratio of 90% or more (almost completely withered)) | 4 (Herbicidal ratio of 70% or higher and lower than 90%) | 2 (Herbicidal ratio of 20% or higher and lower than 40%) | 1 (Herbicidal ratio of 5% or higher and lower than 20%) | 5 (Herbicidal ratio of 90% or more (almost completely withered)) | 0 (Herbicidal ratio of 5% or lower (almost no effect)) | 
CC(CC1CC(OC(=O)N2CCOCC2)=C(c2c(C)cc(-c3ccc(Cl)cc3)cc2C)C1=O)=NOCC(F)(F)F (mixture of isomers) [9-025] | 0 (Herbicidal ratio of 5% or lower (almost no effect)) |  | 0 (Herbicidal ratio of 5% or lower (almost no effect)) | 0 (Herbicidal ratio of 5% or lower (almost no effect)) | 0 (Herbicidal ratio of 5% or lower (almost no effect)) | 0 (Herbicidal ratio of 5% or lower (almost no effect)) | 0 (Herbicidal ratio of 5% or lower (almost no effect)) | 5 (Herbicidal ratio of 90% or more (almost completely withered)) | 4 (Herbicidal ratio of 70% or higher and lower than 90%) | 3 (Herbicidal ratio of 40% or higher and lower than 70%) | 0 (Herbicidal ratio of 5% or lower (almost no effect)) | 0 (Herbicidal ratio of 5% or lower (almost no effect)) | 0 (Herbicidal ratio of 5% or lower (almost no effect)) | 0 (Herbicidal ratio of 5% or lower (almost no effect)) | 
COCCON=C(CC1CC(O)=C(c2c(C)cc(-n3cc(Cl)cn3)cc2C)C1=O)C(C)C (centres unmarked) [9-022] | 5 (Herbicidal ratio of 90% or more (almost completely withered)) | 0 (Herbicidal ratio of 5% or lower (almost no effect)) | 5 (Herbicidal ratio of 90% or more (almost completely withered)) | 0 (Herbicidal ratio of 5% or lower (almost no effect)) |  | 4 (Herbicidal ratio of 70% or higher and lower than 90%) | 0 (Herbicidal ratio of 5% or lower (almost no effect)) | 5 (Herbicidal ratio of 90% or more (almost completely withered)) | 5 (Herbicidal ratio of 90% or more (almost completely withered)) | 0 (Herbicidal ratio of 5% or lower (almost no effect)) | 0 (Herbicidal ratio of 5% or lower (almost no effect)) | 0 (Herbicidal ratio of 5% or lower (almost no effect)) | 5 (Herbicidal ratio of 90% or more (almost completely withered)) | 0 (Herbicidal ratio of 5% or lower (almost no effect)) | 

Reference: US11000033B2, “Ketone or oxime compound, and herbicide” (NISSAN CHEMICAL CORPORATION, priority 2014, dated 2021)
